Source: ChEMBL document CHEMBL3217627, “Designing glucokinase activators with reduced hypoglycemia risk: discovery of N,N-dimethyl-5-(2-methyl-6-((5-methylpyrazin-2-yl)-carbamoyl)benzofuran-4-yloxy)pyrimidine-2-carboxamide as a clinical candidate for the treatment of type 2 diabetes mellitus” (Medchemcomm, 2011)
Values after ≈ are worked out from the molar mass of the structure shown. Active and inactive are the calls of the source. No cut-off for these calls is given here.

Legend:
[1] = Passive permeability across RRCK cells; format: ADME, cell-based, Canis lupus familiaris, MDCKII-LE; details: dog, MDCK; read-out: permeability
[2] = Kinetic solubility of the compound; format: physicochemical; details: read-out: Kinetic_solubility
hERG (KCNH2) = hERG (KCNH2) (Homo sapiens, UniProt Q12809); assay: Inhibition of dofetilide binding to human ERG at 10 uM relative to control; details: probe dofetilide
Chain of hERG (KCNH2) (Q12809 whole entry): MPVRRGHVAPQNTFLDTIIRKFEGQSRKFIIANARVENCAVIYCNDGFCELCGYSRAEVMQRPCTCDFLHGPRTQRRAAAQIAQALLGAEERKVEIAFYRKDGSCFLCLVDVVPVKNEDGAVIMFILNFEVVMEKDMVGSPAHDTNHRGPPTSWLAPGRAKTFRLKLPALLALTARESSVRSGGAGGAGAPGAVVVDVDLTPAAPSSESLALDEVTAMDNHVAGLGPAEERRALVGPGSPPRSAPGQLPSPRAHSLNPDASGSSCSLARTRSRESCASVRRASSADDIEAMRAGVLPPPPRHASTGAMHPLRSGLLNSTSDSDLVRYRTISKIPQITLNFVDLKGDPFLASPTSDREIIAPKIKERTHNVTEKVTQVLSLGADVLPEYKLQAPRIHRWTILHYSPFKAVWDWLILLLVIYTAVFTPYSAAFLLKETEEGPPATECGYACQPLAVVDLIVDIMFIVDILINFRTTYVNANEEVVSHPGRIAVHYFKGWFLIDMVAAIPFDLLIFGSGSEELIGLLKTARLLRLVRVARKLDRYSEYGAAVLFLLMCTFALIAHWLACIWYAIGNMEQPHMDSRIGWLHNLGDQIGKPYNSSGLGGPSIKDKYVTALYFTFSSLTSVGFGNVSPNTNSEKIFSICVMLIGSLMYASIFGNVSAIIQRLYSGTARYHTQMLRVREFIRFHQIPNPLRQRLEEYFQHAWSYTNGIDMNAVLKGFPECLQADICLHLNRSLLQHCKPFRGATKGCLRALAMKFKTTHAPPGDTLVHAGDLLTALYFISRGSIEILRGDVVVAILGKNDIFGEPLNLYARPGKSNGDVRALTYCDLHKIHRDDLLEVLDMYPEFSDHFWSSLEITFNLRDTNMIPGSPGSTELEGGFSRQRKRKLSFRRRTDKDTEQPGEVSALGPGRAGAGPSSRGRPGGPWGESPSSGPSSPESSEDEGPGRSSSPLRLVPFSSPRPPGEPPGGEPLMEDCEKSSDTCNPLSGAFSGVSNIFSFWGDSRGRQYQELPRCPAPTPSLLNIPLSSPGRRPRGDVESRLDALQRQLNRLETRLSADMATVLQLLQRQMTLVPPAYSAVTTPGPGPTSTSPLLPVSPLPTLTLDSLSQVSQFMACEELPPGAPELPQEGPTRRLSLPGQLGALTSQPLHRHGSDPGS

[3] = Intrinsic clearance in human liver microsomes; format: ADME; details: read-out: CLH
Hexokinase-4 [4] = target: T1, Hexokinase-4 (Homo sapiens, UniProt P35557)
T1 sequence (P35557 whole entry): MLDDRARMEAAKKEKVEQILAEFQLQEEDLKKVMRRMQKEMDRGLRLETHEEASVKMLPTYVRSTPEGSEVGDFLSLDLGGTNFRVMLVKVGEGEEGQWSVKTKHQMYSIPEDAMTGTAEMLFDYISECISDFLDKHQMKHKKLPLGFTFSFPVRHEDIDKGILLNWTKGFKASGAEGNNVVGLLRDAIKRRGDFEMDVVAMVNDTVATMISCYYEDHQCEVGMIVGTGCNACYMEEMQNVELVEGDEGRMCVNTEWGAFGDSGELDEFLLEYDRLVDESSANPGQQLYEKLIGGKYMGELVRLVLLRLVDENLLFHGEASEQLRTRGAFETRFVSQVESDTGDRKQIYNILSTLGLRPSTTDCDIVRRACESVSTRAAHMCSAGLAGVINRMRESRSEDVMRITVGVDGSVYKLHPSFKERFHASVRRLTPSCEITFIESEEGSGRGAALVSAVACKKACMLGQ
Description: Activation of recombinant human glucokinase assessed as formation of glucose-6-phosphate by G6PDH/NADP coupled assay

Hexokinase-4 [5] = target: T2, Hexokinase-4 (Rattus norvegicus, UniProt P17712); assay: Activation of rat glucokinase
T2 sequence (P17712 whole entry): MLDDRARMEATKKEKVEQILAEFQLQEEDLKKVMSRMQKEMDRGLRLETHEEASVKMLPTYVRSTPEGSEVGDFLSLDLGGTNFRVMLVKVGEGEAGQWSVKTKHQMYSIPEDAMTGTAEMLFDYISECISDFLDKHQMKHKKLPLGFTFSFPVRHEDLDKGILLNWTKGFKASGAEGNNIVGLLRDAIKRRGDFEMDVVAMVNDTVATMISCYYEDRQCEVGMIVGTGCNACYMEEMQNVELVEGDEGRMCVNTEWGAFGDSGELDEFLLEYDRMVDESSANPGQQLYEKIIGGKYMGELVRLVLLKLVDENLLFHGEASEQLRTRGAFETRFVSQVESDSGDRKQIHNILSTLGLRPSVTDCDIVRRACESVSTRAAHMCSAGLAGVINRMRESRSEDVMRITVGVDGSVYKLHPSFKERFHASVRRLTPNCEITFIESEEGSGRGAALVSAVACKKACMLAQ

[6] = Selectivity ratio of EC50 for rat glucokinase to EC50 for human glucokinase
Rattus norvegicus [7] = assay: Toxicity in po dosed Sprague-Dawley rat assessed as reduction in fasting plasma glucose level administered for 60 mins measured over first hour prior to OGTT; format: organism-based; details: in vivo, 1 h
Rattus norvegicus [8] = assay: Toxicity in Sprague-Dawley rat assessed as hypoglycemic level at 30 to 100 mg/kg, po administered for 60 mins measured over first hour prior to OGTT; format: organism-based; parameters: dose 30-100 mg/kg, route oral; details: in vivo, 1 h
Rattus norvegicus [9] = assay: Antidiabetic activity in po dosed Sprague-Dawley rat assessed as reduction of post-prandial glucose excursion administered for 60 mins followed by glucose challenge measured up to 120 mins by OGTT; format: functional, organism-based
[10] = target: Voltage-gated inwardly rectifying potassium channel KCNH2 (Homo sapiens, UniProt Q12809); assay: Inhibition of dofetilide binding to human ERG
Chain of Voltage-gated inwardly rectifying potassium channel KCNH2 (Q12809 whole entry): as the sequence (Q12809 whole entry) above

[11] = Clearance in Beagle dog at 0.5 mg/kg, iv and 5 mg/kg, po; format: ADME, organism-based, Canis lupus familiaris; details: in vivo
[12] = Clearance in cynomolgus monkey at 0.5 mg/kg, iv and 3 mg/kg, po; format: ADME, organism-based, Macaca fascicularis; details: in vivo
[13] = Half life in male Sprague-Dawley rat at 1 mg/kg, iv and po; format: ADME, organism-based; parameters: dose 1 mg/kg, route oral; details: in vivo
[14] = Half life in female Sprague-Dawley rat at 1 mg/kg, iv and po; format: ADME, organism-based; parameters: dose 1 mg/kg, route oral; details: in vivo
[15] = Half life in Beagle dog at 0.5 mg/kg, iv and 5 mg/kg, po; format: ADME, organism-based, Canis lupus familiaris; details: in vivo
[16] = Half life in cynomolgus monkey at 0.5 mg/kg, iv and 3 mg/kg, po; format: ADME, organism-based, Macaca fascicularis; details: in vivo
Rattus norvegicus [17] = assay: Volume of distribution at steady state in male Sprague-Dawley rat at 1 mg/kg, iv and po; format: ADME, organism-based; parameters: dose 1 mg/kg, route oral; details: in vivo
Rattus norvegicus [18] = assay: Volume of distribution at steady state in female Sprague-Dawley rat at 1 mg/kg, iv and po; format: ADME, organism-based; parameters: dose 1 mg/kg, route oral; details: in vivo
[19] = Volume of distribution at steady state in Beagle dog at 0.5 mg/kg, iv and 5 mg/kg, po; format: ADME, organism-based, Canis lupus familiaris; details: in vivo, read-out: Vdss
[20] = Volume of distribution at steady state in cynomolgus monkey at 0.5 mg/kg, iv and 3 mg/kg, po; format: ADME, organism-based, Macaca fascicularis; details: in vivo, read-out: Vdss
[21] = Oral bioavailability in male Sprague-Dawley rat at 1 mg/kg; format: ADME, organism-based; details: in vivo
[22] = Oral bioavailability in female Sprague-Dawley rat at 1 mg/kg; format: ADME, organism-based; details: in vivo
[23] = Oral bioavailability in Beagle dog at 5 mg/kg; format: ADME, organism-based, Canis lupus familiaris; details: in vivo
[24] = Oral bioavailability in cynomolgus monkey at 3 mg/kg; format: ADME, organism-based, Macaca fascicularis; details: in vivo
[25] = Drug excretion in Sprague-Dawley rat urine assessed as parent compound level at 1 mg/kg, iv; format: ADME, organism-based; parameters: dose 1 mg/kg, route intravenous; details: read-out: Drug excretion
[26] = Drug excretion in bile duct-cannulated rat bile assessed as parent compound level at 5 mg/kg, iv; format: ADME, organism-based; parameters: dose 5 mg/kg, route intravenous; details: read-out: Drug excretion
Pancreatic islet [27] = assay: Induction of 9 to 13 mM glucose-induced insulin secretion in rat dispersed pancreatic islet static culture at 0.4 to 12 uM; format: functional
Pancreatic islet [28] = assay: Induction of > 22 mM glucose-induced insulin secretion in rat dispersed pancreatic islet static culture at 0.4 to 12 uM; format: functional
Pancreatic islet [29] = assay: Induction of 3 to 5 mM glucose-induced insulin secretion in rat dispersed pancreatic islet static culture at 0.4 to 1.2 uM; format: functional
Pancreatic islet [30] = assay: Induction of 3 to 5 mM glucose-induced insulin secretion in rat dispersed pancreatic islet static culture at 4 to 12 uM; format: functional

COc1cnc(NC(=O)c2cc(Oc3cnc(C(=O)N(C)C)cn3)c3cc(C)oc3c2)cn1 gave a Papp [1] of 15.8 ×10⁻⁶ cm/s, a solubility kinetic [2] of 25 µM (≈ 11.2 µg/mL) and an inhibition at 10 µM (hERG (KCNH2)) of 6%. The CLint scaled [3] was < 8 mL/min/kg and the EC50 (Hexokinase-4 [4]) was 127 nM.

Cc1cc2c(Oc3cnc(C(=O)N(C)C)cn3)cc(C(=O)Nc3cnccn3)cc2o1 gave a Papp [1] of 30 ×10⁻⁶ cm/s, a solubility kinetic [2] of 30 µM (≈ 12.6 µg/mL) and an inhibition at 10 µM (hERG (KCNH2)) of 60%. The CLint scaled [3] was 15 mL/min/kg and the EC50 (Hexokinase-4 [4]) was 391 nM.

CCc1cnc(NC(=O)c2cc(Oc3cnc(C(=O)N(C)C)cn3)c3cc(C)oc3c2)cn1 showed a Papp [1] of 23.7 ×10⁻⁶ cm/s, a solubility kinetic [2] of 117 µM (≈ 52.2 µg/mL) and a CLint scaled [3] of 12.2 mL/min/kg. The EC50 (Hexokinase-4 [4]) was 254 nM.

For COc1ccc2nc(NC(=O)[C@H](CC3CCCC3)c3ccc(S(=O)(=O)N4CCN(C)CC4)cc3)sc2n1, the EC50 (Hexokinase-4 [5]) was 390 nM, the Ratio EC50 [6] was < 4 and the EC50 (Hexokinase-4 [4]) was 122 nM.

In the case of CCN(C)C(=O)c1cnc(Oc2cc(C(=O)Nc3cnc(C)cn3)cc3oc(C)cc23)cn1, the Papp [1] is reported as 24.1 ×10⁻⁶ cm/s, the solubility kinetic [2] is reported as 344 µM (≈ 154 µg/mL) and the inhibition at 10 µM (hERG (KCNH2)) is reported as 6%. For the same compound, the CLint scaled [3] was < 8 mL/min/kg and the EC50 (Hexokinase-4 [4]) was 153 nM.

In the case of Cn1ccc(NC(=O)c2cc(Oc3ccc(C(=O)N4CCC4)c(F)c3)c3c(c2)OC(C)(C)C3)n1, the EC50 (Hexokinase-4 [5]) is reported as 50 nM, the Activity (Rattus norvegicus [7]) is reported as “Dose-dependent effect” and the Activity (Rattus norvegicus [8]) is reported as < 60 mg/dL. For the same compound, the Activity (Rattus norvegicus [9]) was “Dose-dependent effect”, the Ratio EC50 [6] was < 4 and the EC50 (Hexokinase-4 [4]) was 27 nM.

COC1CN(C(=O)c2cnc(Oc3cc(C(=O)Nc4cnccn4)cc4oc(C)cc34)cn2)C1 showed a Papp [1] of 21.8 ×10⁻⁶ cm/s, a solubility kinetic [2] of 158 µM (≈ 72.8 µg/mL) and an inhibition at 10 µM (hERG (KCNH2)) of 38%. The CLint scaled [3] was < 9.2 mL/min/kg and the EC50 (Hexokinase-4 [4]) was > 5000 nM.

With Cc1cnc(NC(=O)c2cc(Oc3cnc(C(=O)N(C)C)cn3)c3cc(C)oc3c2)cn1 the solubility kinetic [2] was 176 µM (≈ 76.1 µg/mL) and the CLint scaled [3] was < 8.5 mL/min/kg.

With Cc1cc2c(Oc3cnc(C(=O)N4CC(C)(O)C4)cn3)cc(C(=O)Nc3cnccn3)cc2o1 the Papp [1] was 9 ×10⁻⁶ cm/s, the solubility kinetic [2] was 137 µM (≈ 63.1 µg/mL) and the inhibition at 10 µM (hERG (KCNH2)) was 10%. The CLint scaled [3] was < 8 mL/min/kg and the EC50 (Hexokinase-4 [4]) was > 5000 nM.

For Cc1cnc(NC(=O)c2cc(Oc3ccc(C#N)cc3)c3cc(C)oc3c2)cn1, the Papp [1] was 1.5 ×10⁻⁶ cm/s, the solubility kinetic [2] was 2 µM (≈ 0.769 µg/mL) and the IC50 [10] was 4000 nM. The CLint scaled [3] was 29 mL/min/kg and the EC50 (Hexokinase-4 [4]) was 3060 nM.

With Cc1cnc(NC(=O)c2cc(Oc3ncc(C(=O)N(C)C)cn3)c3cc(C)oc3c2)cn1 the Papp [1] was 34.7 ×10⁻⁶ cm/s, the solubility kinetic [2] was 485 µM (≈ 210 µg/mL) and the inhibition at 10 µM (hERG (KCNH2)) was 0%. The CLint scaled [3] was < 8 mL/min/kg and the EC50 (Hexokinase-4 [4]) was > 20 nM.

For Cc1cnc(NC(=O)c2cc(Oc3cnc(C(=O)N4CCCC4)cn3)c3cc(C)oc3c2)cn1, the Papp [1] was 15.8 ×10⁻⁶ cm/s, the solubility kinetic [2] was 4.5 µM (≈ 2.06 µg/mL) and the inhibition at 10 µM (hERG (KCNH2)) was 6%. For the same compound, the CLint scaled [3] was < 8.1 mL/min/kg and the EC50 (Hexokinase-4 [4]) was 64 nM.

For COCc1ccc(Oc2cc3[nH]c(-c4ccccn4)nc3cc2[C@H]2CCCN2C(C)=O)cn1, the EC50 (Hexokinase-4 [5]) was 187 nM, the Ratio EC50 [6] was < 4 and the EC50 (Hexokinase-4 [4]) was 88 nM.

For Cc1cnc(NC(=O)c2cc(Oc3cnc(C(=O)N(C)C)nc3)c3cc(C)oc3c2)cn1 [NERIGLIATIN], the solubility kinetic [2] was 463 µM (≈ 200 µg/mL), the clearance [11] was 2.6 mL/min/kg and the clearance [12] was 9.4 mL/min/kg. For the same compound, the half-life [13] was 4.3 h, the half-life [14] was 1.2 h and the half-life [15] was 3.3 h. For the same compound, the half-life [16] was 1.8 h, the Vdss (Rattus norvegicus [17]) was 2.1 L/kg and the Vdss (Rattus norvegicus [18]) was 1.1 L/kg. For the same compound, the Vd [19] was 0.65 L/kg, the Vd [20] was 0.83 L/kg and the bioavailability [21] was 23%. It also gave a bioavailability [22] of 77%, a bioavailability [23] of 12% and a bioavailability [24] of 78%. For the same compound, the dose excreted [25] was 0.26%, the dose excreted [26] was 2.3% and the Activity (Pancreatic islet [27]) was “Active”. The Activity (Pancreatic islet [28]) was “inactive”, the Activity (Pancreatic islet [29]) was “inactive” and the Activity (Pancreatic islet [30]) was “Active”. The Activity (Rattus norvegicus [9]) was “Dose-dependent effect” and the CLint scaled [3] was < 8 mL/min/kg.

With Cc1ccc(NC(=O)c2cc(Oc3cnc(C(=O)N(C)C)cn3)c3cc(C)oc3c2)nc1 the Papp [1] was 21.5 ×10⁻⁶ cm/s, the solubility kinetic [2] was 215 µM (≈ 92.8 µg/mL) and the inhibition at 10 µM (hERG (KCNH2)) was 2%. For the same compound, the CLint scaled [3] was < 10.6 mL/min/kg and the EC50 (Hexokinase-4 [4]) was 477 nM.
